PMC4076210, “Discovery of Novel AKT Inhibitors with Enhanced Anti-Tumor Effects in Combination with the MEK Inhibitor” (PLoS ONE, 2014)
Where two headings read alike, the source gives them in different places.

How the values were obtained:
Experiment in all cases: Kinase panel
[1] = biological target: T1, MKK7β(h) (Homo sapiens, UniProt O14733); assay type: biochemical
T1 construct: purchased Millipore KinaseProfiler
T1 sequence (O14733 1-419): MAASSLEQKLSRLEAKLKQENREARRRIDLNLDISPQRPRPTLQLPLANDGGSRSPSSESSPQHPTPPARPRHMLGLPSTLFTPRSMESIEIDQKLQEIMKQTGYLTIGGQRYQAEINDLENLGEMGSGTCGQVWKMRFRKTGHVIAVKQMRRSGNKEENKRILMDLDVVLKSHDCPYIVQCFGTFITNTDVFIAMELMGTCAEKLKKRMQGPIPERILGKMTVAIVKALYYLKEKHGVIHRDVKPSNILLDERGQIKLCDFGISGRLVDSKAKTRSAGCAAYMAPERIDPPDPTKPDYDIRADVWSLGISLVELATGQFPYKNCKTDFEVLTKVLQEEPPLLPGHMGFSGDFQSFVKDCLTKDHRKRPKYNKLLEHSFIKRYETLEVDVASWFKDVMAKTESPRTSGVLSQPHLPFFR

[2] = biological target: T2, ErbB4(h) (Homo sapiens, UniProt Q15303); assay type: biochemical
T2 construct: purchased Millipore KinaseProfiler
T2 sequence (Q15303 26-1308): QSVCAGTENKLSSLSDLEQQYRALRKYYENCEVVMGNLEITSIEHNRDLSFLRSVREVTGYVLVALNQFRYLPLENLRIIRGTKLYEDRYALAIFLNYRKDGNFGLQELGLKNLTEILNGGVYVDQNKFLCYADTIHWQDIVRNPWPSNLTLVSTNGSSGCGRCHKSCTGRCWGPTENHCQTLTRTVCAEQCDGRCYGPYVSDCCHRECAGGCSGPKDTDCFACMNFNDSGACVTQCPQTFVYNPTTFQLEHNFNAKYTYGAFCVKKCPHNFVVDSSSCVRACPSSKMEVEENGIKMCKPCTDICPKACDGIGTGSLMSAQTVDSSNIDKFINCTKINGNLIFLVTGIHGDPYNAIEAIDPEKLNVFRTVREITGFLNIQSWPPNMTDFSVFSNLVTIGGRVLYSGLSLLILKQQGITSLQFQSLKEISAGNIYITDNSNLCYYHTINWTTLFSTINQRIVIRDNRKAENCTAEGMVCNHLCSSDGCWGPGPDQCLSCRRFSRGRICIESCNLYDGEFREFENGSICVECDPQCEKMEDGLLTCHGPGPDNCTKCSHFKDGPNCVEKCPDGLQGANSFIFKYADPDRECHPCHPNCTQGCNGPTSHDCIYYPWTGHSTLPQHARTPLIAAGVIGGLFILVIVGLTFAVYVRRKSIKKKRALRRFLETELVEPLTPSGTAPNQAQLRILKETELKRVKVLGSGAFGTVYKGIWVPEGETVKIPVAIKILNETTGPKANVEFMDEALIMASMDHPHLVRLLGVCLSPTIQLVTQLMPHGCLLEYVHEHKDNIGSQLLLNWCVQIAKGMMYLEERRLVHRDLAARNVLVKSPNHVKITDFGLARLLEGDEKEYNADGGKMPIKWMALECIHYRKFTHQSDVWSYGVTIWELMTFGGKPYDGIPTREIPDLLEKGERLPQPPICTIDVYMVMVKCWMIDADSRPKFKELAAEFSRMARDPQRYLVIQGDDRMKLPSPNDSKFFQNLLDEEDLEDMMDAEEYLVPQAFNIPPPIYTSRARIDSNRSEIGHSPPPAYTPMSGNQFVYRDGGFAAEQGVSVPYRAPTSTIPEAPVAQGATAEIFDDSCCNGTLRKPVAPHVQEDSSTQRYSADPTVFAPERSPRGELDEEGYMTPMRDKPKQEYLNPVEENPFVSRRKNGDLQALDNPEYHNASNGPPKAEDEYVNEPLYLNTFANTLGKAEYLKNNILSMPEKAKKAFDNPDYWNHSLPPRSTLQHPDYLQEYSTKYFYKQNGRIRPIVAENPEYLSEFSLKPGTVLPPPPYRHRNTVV

[3] = biological target: T3, Abl (M351T)(h) (Homo sapiens, UniProt P00519, M351T); assay type: biochemical
T3 construct: purchased Millipore KinaseProfiler

[4] = biological target: T4, SGK3(h) (Homo sapiens, UniProt Q96BR1)
T4 sequence (Q96BR1 1-496): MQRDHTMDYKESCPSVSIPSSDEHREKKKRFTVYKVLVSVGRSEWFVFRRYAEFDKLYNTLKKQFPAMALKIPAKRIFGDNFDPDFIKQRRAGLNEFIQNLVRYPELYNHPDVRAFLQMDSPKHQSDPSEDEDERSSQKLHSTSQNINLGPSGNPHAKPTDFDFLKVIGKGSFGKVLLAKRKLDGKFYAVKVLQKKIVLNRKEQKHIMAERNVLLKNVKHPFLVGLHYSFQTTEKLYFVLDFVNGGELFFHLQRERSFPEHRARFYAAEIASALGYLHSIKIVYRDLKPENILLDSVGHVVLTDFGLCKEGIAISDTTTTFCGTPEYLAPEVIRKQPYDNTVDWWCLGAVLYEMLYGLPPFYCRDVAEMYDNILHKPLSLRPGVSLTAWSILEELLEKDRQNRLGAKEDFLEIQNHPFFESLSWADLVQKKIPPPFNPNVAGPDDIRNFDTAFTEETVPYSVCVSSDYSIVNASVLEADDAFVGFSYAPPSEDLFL

[5] = biological target: T5, PDGFRα(V561D)(h) (Homo sapiens, UniProt P16234, V561D); assay type: biochemical
T5 construct: purchased Millipore KinaseProfiler
T5 sequence (P16234 24-1089 V561D): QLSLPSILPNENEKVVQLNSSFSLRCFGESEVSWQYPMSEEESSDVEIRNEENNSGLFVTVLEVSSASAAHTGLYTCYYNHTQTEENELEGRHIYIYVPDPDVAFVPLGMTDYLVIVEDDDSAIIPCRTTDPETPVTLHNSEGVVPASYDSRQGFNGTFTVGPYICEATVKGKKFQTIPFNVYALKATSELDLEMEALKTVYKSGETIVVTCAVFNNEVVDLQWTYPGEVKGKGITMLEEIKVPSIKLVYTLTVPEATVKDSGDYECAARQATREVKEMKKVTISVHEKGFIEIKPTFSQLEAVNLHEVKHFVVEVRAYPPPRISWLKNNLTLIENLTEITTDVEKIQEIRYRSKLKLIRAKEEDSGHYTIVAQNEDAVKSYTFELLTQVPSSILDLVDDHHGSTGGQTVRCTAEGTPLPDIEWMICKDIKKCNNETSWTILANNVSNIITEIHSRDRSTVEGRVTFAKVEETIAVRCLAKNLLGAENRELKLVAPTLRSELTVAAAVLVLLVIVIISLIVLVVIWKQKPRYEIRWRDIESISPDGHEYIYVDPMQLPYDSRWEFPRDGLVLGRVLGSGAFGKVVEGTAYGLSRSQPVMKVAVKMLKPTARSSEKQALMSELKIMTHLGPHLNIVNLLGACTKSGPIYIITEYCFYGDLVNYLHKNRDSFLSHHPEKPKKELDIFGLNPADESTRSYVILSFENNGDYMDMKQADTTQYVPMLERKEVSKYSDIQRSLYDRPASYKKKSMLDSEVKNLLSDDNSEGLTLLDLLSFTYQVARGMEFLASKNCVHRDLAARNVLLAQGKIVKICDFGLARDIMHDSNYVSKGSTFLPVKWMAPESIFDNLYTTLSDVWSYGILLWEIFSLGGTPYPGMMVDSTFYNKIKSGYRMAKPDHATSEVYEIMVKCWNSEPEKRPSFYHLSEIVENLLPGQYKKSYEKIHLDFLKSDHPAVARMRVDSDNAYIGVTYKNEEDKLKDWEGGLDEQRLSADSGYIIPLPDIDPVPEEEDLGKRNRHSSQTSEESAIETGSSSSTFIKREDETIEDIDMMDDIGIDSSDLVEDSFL

[6] = biological target: T6, EphA3(h) (Homo sapiens, UniProt P29320); assay type: biochemical
T6 construct: purchased Millipore KinaseProfiler
T6 sequence (P29320 21-983): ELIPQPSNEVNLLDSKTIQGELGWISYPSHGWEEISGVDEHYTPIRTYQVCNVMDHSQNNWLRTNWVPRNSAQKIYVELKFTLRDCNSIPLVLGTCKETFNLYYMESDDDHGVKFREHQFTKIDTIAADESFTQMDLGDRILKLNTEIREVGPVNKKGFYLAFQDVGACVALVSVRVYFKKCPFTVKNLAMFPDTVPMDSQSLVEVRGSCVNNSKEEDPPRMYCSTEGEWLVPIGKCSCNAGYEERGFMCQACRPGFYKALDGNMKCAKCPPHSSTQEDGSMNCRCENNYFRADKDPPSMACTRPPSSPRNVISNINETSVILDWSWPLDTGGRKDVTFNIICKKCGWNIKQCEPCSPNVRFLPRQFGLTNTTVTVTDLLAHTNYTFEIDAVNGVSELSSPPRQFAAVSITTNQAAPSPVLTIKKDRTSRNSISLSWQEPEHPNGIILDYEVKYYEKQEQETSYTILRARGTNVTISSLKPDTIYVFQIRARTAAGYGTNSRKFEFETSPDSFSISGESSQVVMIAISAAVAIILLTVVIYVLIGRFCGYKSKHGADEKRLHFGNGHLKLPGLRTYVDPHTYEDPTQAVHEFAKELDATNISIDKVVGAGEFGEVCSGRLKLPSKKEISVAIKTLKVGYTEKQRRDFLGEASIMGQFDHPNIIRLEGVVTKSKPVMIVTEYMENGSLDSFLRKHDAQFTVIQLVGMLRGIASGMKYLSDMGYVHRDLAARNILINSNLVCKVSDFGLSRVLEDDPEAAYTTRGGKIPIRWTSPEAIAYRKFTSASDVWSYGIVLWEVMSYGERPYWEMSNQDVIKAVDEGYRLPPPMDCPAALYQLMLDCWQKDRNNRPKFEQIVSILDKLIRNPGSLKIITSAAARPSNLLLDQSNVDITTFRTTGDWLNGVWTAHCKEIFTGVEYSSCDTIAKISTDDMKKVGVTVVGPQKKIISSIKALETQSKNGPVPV

Question: Which results are given for `Cn1ncc(Cl)c1-c1cc(C(=O)N[C@H](CN)Cc2cccc(F)c2)sc1Cl` [GSK2110183]?
Answer: inhibition at 0.5 µM [1]: 12%; inhibition at 10 µM [1]: 28%; inhibition at 0.5 µM [2]: -4%; inhibition at 10 µM [2]: 4%; inhibition at 0.5 µM [3]: 0%; inhibition at 10 µM [3]: 24%; inhibition at 0.5 µM [4]: 7%; inhibition at 10 µM [4]: 76%; inhibition at 0.5 µM [5]: 2%; inhibition at 10 µM [5]: 26%; inhibition at 0.5 µM [6]: 1%; inhibition at 10 µM [6]: 11%

Question: For `Cn1ncc(Cl)c1-c1cc(C(=O)N[C@H](CN)Cc2ccc(F)c(F)c2)oc1Cl` [GSK2141795], which inhibition at 0.5 µM ([1]; 0.5 µM, read-out: % Inhibition) is on record?
Answer: -13%

Question: And the inhibition at 10 µM ([1]; 10 µM, read-out: % Inhibition)?
Answer: -30%

Question: And the inhibition at 0.5 µM ([2]; 0.5 µM, read-out: % Inhibition)?
Answer: -11%

Question: And the inhibition at 10 µM ([2]; 10 µM, read-out: % Inhibition)?
Answer: -5%

Question: And the inhibition at 0.5 µM ([3]; 0.5 µM, read-out: % Inhibition)?
Answer: -7%

Question: And the inhibition at 10 µM ([3]; 10 µM, read-out: % Inhibition)?
Answer: -3%

Question: What about the inhibition at 0.5 µM [4] of the same molecule?
Answer: 18%

Question: What about the inhibition at 10 µM [4] of the same molecule?
Answer: 84%

Question: What about the inhibition at 0.5 µM ([5]; 0.5 µM, read-out: % Inhibition) of the same molecule?
Answer: -5%

Question: What about the inhibition at 10 µM ([5]; 10 µM, read-out: % Inhibition) of the same molecule?
Answer: 14%

Question: And the inhibition at 0.5 µM ([6]; 0.5 µM, read-out: % Inhibition)?
Answer: -7%

Question: And the inhibition at 10 µM ([6]; 10 µM, read-out: % Inhibition)?
Answer: 21%
